The supplement of paper PMC13207355

Legend:
Conditions in all cases: exposure time: 72 h
E28 [1] = patient-derived glioblastoma stem cells of classical subtype; assay: phenotypic distance (Euclidean, principal components) from DMSO controls (arbitrary units); higher = stronger morphological change
E13 [2] = patient-derived glioblastoma stem cells of classical subtype; assay: as above
FT3469 [3] = normal neural stem cell line; assay: as above
E34 [4] = patient-derived glioblastoma stem cells of proneural subtype; assay: as above
E31 [5] = patient-derived glioblastoma stem cells of proneural subtype; assay: as above
E57 [6] = patient-derived glioblastoma stem cells of mesenchymal subtype; assay: as above
E21 [7] = patient-derived glioblastoma stem cells of mesenchymal subtype; assay: as above
E28 [8] = assay: surviving fraction (nuclei count normalised to DMSO); higher = more cells surviving (less toxic)
E13 [9] = assay: as above
FT3469 [10] = assay: as above
E34 [11] = assay: as above
E31 [12] = assay: as above
E57 [13] = assay: as above
E21 [14] = assay: as above
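For phenotypic distance (Euclidean, principal components) from DMSO controls in this document: cell Painting imaging in 384-well plates, CellProfiler features reduced to at least 20 principal components, Euclidean distance versus same-plate DMSO vehicle wells (0.1% v/v), median over six images per well.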
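For surviving fraction (nuclei count normalised to DMSO) in this document: nuclei counted by high-content imaging of Hoechst-stained cells in laminin-coated 384-well plates, relative to 0.1% DMSO vehicle wells, with staurosporine as cell-death control.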

NC(=O)c1cccc2cn(-c3ccc([C@@H]4CCCNC4)cc3)nc12 [Niraparib]
Conditions | phenotypic distance | surviving fraction
E13 [2], 4.1 nM | 6.4 | –
E13 [2], 12.3 nM | 0.843 | –
E13 [2], 37 nM | 0.647 | –
E13 [2], 111.1 nM | 1.65 | –
E13 [2], 333.3 nM | 1.62 | –
E13 [2], 1000 nM | 0.782 | –
E13 [2], 3000 nM | 1.33 | –
E13 [9], 4.1 nM | – | 0.923
E13 [9], 12.3 nM | – | 0.914
E13 [9], 37 nM | – | 0.942
E13 [9], 111.1 nM | – | 0.857
E13 [9], 333.3 nM | – | 0.967
E13 [9], 1000 nM | – | 0.966
E13 [9], 3000 nM | – | 0.811
E21 [7], 4.1 nM | 1 | –
E21 [7], 12.3 nM | 1.03 | –
E21 [7], 37 nM | 0.998 | –
E21 [7], 111.1 nM | 0.66 | –
E21 [7], 333.3 nM | 0.751 | –
E21 [7], 1000 nM | 3.25 | –
E21 [7], 3000 nM | 0.988 | –
E21 [14], 4.1 nM | – | 0.89
E21 [14], 12.3 nM | – | 0.869
E21 [14], 37 nM | – | 0.882
E21 [14], 111.1 nM | – | 0.923
E21 [14], 333.3 nM | – | 0.916
E21 [14], 1000 nM | – | 0.927
E21 [14], 3000 nM | – | 0.942
E28 [1], 4.1 nM | 0.932 | –
E28 [1], 12.3 nM | 0.689 | –
E28 [1], 37 nM | 1.02 | –
E28 [1], 111.1 nM | 0.861 | –
E28 [1], 333.3 nM | 0.791 | –
E28 [1], 1000 nM | 1.23 | –
E28 [1], 3000 nM | 2.78 | –
E28 [8], 4.1 nM | – | 0.905
E28 [8], 12.3 nM | – | 0.975
E28 [8], 37 nM | – | 0.875
E28 [8], 111.1 nM | – | 0.868
E28 [8], 333.3 nM | – | 0.922
E28 [8], 1000 nM | – | 0.84
E28 [8], 3000 nM | – | 0.603
E31 [5], 4.1 nM | 0.907 | –
E31 [5], 12.3 nM | 1.29 | –
E31 [5], 37 nM | 1.19 | –
E31 [5], 111.1 nM | 0.995 | –
E31 [5], 333.3 nM | 0.875 | –
E31 [5], 1000 nM | 0.834 | –
E31 [5], 3000 nM | 2.29 | –
E31 [12], 4.1 nM | – | 1.04
E31 [12], 12.3 nM | – | 0.782
E31 [12], 37 nM | – | 1
E31 [12], 111.1 nM | – | 0.896
E31 [12], 333.3 nM | – | 0.939
E31 [12], 1000 nM | – | 0.886
E31 [12], 3000 nM | – | 0.64
E34 [4], 4.1 nM | 3.06 | –
E34 [4], 12.3 nM | 0.78 | –
E34 [4], 37 nM | 0.587 | –
E34 [4], 111.1 nM | 0.691 | –
E34 [4], 333.3 nM | 0.654 | –
E34 [4], 1000 nM | 0.893 | –
E34 [4], 3000 nM | 1.77 | –
E34 [11], 4.1 nM | – | 0.963
E34 [11], 12.3 nM | – | 0.904
E34 [11], 37 nM | – | 0.902
E34 [11], 111.1 nM | – | 0.971
E34 [11], 333.3 nM | – | 0.861
E34 [11], 1000 nM | – | 0.924
E34 [11], 3000 nM | – | 0.737
E57 [6], 4.1 nM | 0.553 | –
E57 [6], 12.3 nM | 0.936 | –
E57 [6], 37 nM | 0.684 | –
E57 [6], 111.1 nM | 0.604 | –
E57 [6], 333.3 nM | 0.582 | –
E57 [6], 1000 nM | 0.667 | –
E57 [6], 3000 nM | 1.51 | –
E57 [13], 4.1 nM | – | 0.996
E57 [13], 12.3 nM | – | 0.917
E57 [13], 37 nM | – | 0.93
E57 [13], 111.1 nM | – | 0.833
E57 [13], 333.3 nM | – | 0.951
E57 [13], 1000 nM | – | 0.921
E57 [13], 3000 nM | – | 0.826
FT3469 [3], 4.1 nM | 1.72 | –
FT3469 [3], 12.3 nM | 0.905 | –
FT3469 [3], 37 nM | 1.21 | –
FT3469 [3], 111.1 nM | 0.978 | –
FT3469 [3], 333.3 nM | 0.746 | –
FT3469 [3], 1000 nM | 1.12 | –
FT3469 [3], 3000 nM | 2.12 | –
FT3469 [10], 4.1 nM | – | 0.84
FT3469 [10], 12.3 nM | – | 0.901
FT3469 [10], 37 nM | – | 0.853
FT3469 [10], 111.1 nM | – | 0.918
FT3469 [10], 333.3 nM | – | 0.931
FT3469 [10], 1000 nM | – | 0.916
FT3469 [10], 3000 nM | – | 0.743
